PubChem BioAssay (NCI)
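All cell lines were grown in 96-well plates and treated with compound for 48 hours. GI50 is the concentration that inhibits growth by half. TGI marks complete inhibition of growth.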

How the values were obtained:
Assay in all cases: NCI tumour cell line growth inhibition, 48 h
HCT-116 colon = system: HCT-116 colon
ACHN renal = system: ACHN renal
T-47D breast = system: T-47D breast
SNB-19 CNS = system: SNB-19 CNS
RXF 393 renal = system: RXF 393 renal
A549 NSCLC = system: A549 NSCLC
HCT-15 colon = system: HCT-15 colon
NCI-H23 lung = system: NCI-H23 lung
COLO 205 colon = system: COLO 205 colon
RPMI-8226 leukemia = system: RPMI-8226 leukemia

SMILES	TGI (HCT-116 colon) [µM]	TGI (ACHN renal) [µM]	TGI (T-47D breast) [µM]	TGI (SNB-19 CNS) [µM]	TGI (RXF 393 renal) [µM]	TGI (A549 NSCLC) [µM]	TGI (HCT-15 colon) [µM]	TGI (NCI-H23 lung) [µM]	TGI (COLO 205 colon) [µM]	TGI (RPMI-8226 leukemia) [µM]	GI50 (HCT-116 colon) [µM]	GI50 (ACHN renal) [µM]	GI50 (T-47D breast) [µM]	GI50 (SNB-19 CNS) [µM]	GI50 (RXF 393 renal) [µM]	GI50 (A549 NSCLC) [µM]	GI50 (HCT-15 colon) [µM]	GI50 (NCI-H23 lung) [µM]	GI50 (COLO 205 colon) [µM]	GI50 (RPMI-8226 leukemia) [µM]
O=C1Nc2ccccc2C1Cc1ccc([N+](=O)[O-])cc1 (stereo unspecified)	> 100	> 100	> 100	> 100	> 100	> 100	> 100	> 100	> 100	> 100										
O=C1c2ccc3c4c5ccc(c24)C(=O)N1CCCOCCCCOCCCNCc1ccc(cc1)CNCCCOCCCCOCCCN(C3=O)C5=O	1.9	1.57	2.28	2.27	1.57	2.07	1.97	1.81	1.26	2.49	0.888	0.859	0.997	0.991	0.764	1.01	0.926	0.93	0.531	0.93
O=C1/C(=C/c2ccc([N+](=O)[O-])o2)Oc2ccc(Br)cc21	3.46	3.77	4.39	30	3.21	35.3	8.36	23.1	7.32	6.03	1.9	1.85	1.92	16.1	1.68	18.5	2.62	6.76	2.83	2.32
Cc1ccc2c(c1C)-c1c(ccc(C)c1C)C(=O)C2=O	13.3	3.91	44.3	23.8	2.57	10.3	11	2.81	4.62	0.559										
C/C([O-])=C1\Cc2ccccc2C1=O.C/C([O-])=C1\Cc2ccccc2C1=O.CC[O-].CC[O-].[Ti+4]	> 61.3	> 92.2	92.4	38.5	21.9	> 100	79.4	62.2	67.4	68.8	17.3	19.1	15.5	17.4	7.3	28.5	11.8	20.2	27.4	14.8
NC(=O)c1cc([N+](=O)[O-])c(Cl)c([N+](=O)[O-])c1	3.53	3.37	5.12	29.5	3.11	32.2	3.92	8.32	3.5	5.7	1.91	1.87	2.32	15.3	1.69	16.9	1.98	2.78	1.99	2.32
O=C1/C(=C/c2ccc3c(c2)OCO3)CCC1CN1CCOCC1 (stereo unspecified)	14.5	24	42.3	31.2	24.7	43.3	8.46	25.1	35.8	1.73										
O=C(CCCCCCSc1nc(-c2ccccc2)cc(-c2ccccc2)n1)NO	10.7	3.16	8.21	11.3	4.42	10.4	10.6	5.55	10.7	3.1	0.813	1.45	1.86	2.69	1.72	2.45	2.29	1.97	2.67	0.405
Cn1ccc2c(c1=O)C(=O)c1nccc3c1c-2nc1ccccc13	2.87	2.99	3.74	3.03	2.95	2.9	3.46	2.8	2.96	8.68	1.35	1.59	1.8	1.59	1.49	1.47	1.56	1.27	1.57	2.58
Cc1nc2sc(C(=O)Nc3cccc4ccccc34)c(N)c2cc1C(=O)/C=C/c1ccccc1	0.631	1.25	> 11	> 17	0.776	> 50	0.789	4.07	2.64	0.5	0.174	0.304	0.724	0.534	0.203	0.463	0.185	0.862	0.957	0.14
Cc1nc2cnc3cc(F)c(-c4ccc(Oc5ncccn5)cc4Cl)cc3c2n1[C@H]1CCN(C(=O)CO)C[C@@H]1F	15.4	> 100	> 100	> 100	10.9	> 100	> 100	13.7	1.68	13.9	0.255	8.19	36	4.89	2.02	1.97	3.6	0.32	0.0229	1.35
Cn1c(=O)c(Oc2ccc(F)cc2F)cc2cnc(NC(CO)CO)nc21	> 25	> 25	> 25	> 25	> 25	> 25	> 25	> 25	> 25	> 25	> 25	> 25	> 25	> 25	> 25	> 25	> 25	> 25	> 25	> 25
NC1=C(Br)C(=O)c2ncccc2C1=O	0.807	1.62	4.1	2.41	1.32	2.68	1.65	0.668	3.18	3.81			1.69							
C[C@]12CC[C@@H]3c4ccc(O)cc4CC[C@H]3[C@@H]1CC[C@@H]2NS(=O)(=O)c1cccc(C(F)(F)F)c1	7.12	11.4	13.4	18.2	6.65	12.8	5.23	15.8	4.13	14.2	2.61	3.2	3.65	4.64	2.58	3.23	2.17	3.76	2.12	3.26
c1cc(CCN2CCCCC2)ccn1	> 100	> 100	> 100	> 100	> 100	> 100	> 100	> 100	> 100	> 100										
CN(CC(=O)O)c1ccc(/C=C/c2ccnc3ccccc23)cc1	69.8	> 100	> 100	> 100	49.8	61.4	> 100	> 100	34.3	57.5										
CC(=O)Nc1ccccc1C=C1c2ccccc2-c2ccccc21	> 100	> 100	> 100	45.8	42.3	> 100	> 100	> 100	> 100	> 100										
COc1ccc(C/C(C)=C(\c2ccc(OCCN3CCOCC3)cc2)c2ccc(OC(=O)Cc3ccccc3)cc2)cc1	0.989	3.38	1.28	8.34	0.883	11.2	1.5	3.3	1.54	1.31	0.496	0.99	0.483	1.3	0.438	1.02	0.566	0.823	0.614	0.531
CC(C)[C@@]12C[C@@H](OC(=O)COC(=O)/C=C/c3ccccc3)[C@@](C)(O1)[C@@H]1CC[C@@H](C)[C@H]1[C@@H]2OC(=O)/C=C/c1ccccc1	> 100	0.443	> 100	> 100	> 100	> 100	> 100	> 100	> 100	> 100	> 100	0.0591	> 100	> 100	0.618	> 100	> 100	> 100	> 100	> 89.4
CCc1cccc2c3c(sc12)C(c1ccc(Cl)cc1)C(C#N)=C(N)O3 (stereo unspecified)	9.59	14.3	16.1	12.1	0.976	12.9	9.59	5.18	6.27	7.95	0.408	0.622	0.493	0.499	0.258	0.736	0.418	0.692	0.81	0.442
CCCCCCC#Cc1ccccc1C#CCO	49.6	39	35.1	31.7	32.9	49	> 100	9.74	34	31.4	23.4	18.5	16.3	16.3	16.6	20.7	35.9	3.69	17.2	15
CN1CCN(c2nc(NCCCCNc3ccnc4cc(Cl)ccc34)c3ccccc3n2)CC1	11.7	7.32	6.65	20.8	3.45	20.5	14	29.7	5.46	5.43	2.58	2.52	2.23	4.28	1.74	5.19	2.9	11.7	2.1	1.8
Cc1ccc(/C=C2/SC(Nc3nc(-c4nc(NC5=NC(=O)/C(=C\c6ccc(C)cc6)S5)sc4C)c(C)s3)=NC2=O)cc1	20.9	> 29.6	> 50	> 50	3.65	> 36.6	> 19.6	8.46	> 50	> 15	9.2	0.559	22.3	10.1	0.282	1.37	0.347	0.895	35.2	1.27
COc1cc(Cn2c(=S)ss/c2=N\C(=S)N(C)C)cc(OC)c1OC	> 70.7	> 88.8	> 100	> 100	29.5	> 100	> 70.5	50.6	> 86.9	> 85.8										
CC(C)(O)C1CCC(Nc2ccc3ncc(-c4cccc(C(F)(F)F)c4)n3n2)CC1 (stereo unspecified)	18.5	12.3	5.13	21.8	2.81	13.2	11.3	30.2	21.5	0.79	3.54	2.12	1.5	4.36	1.11	3.1	2.17	3.16	2.62	0.266
C=C1CC2(C[C@@H](c3ccccc3)O[C@@H](c3ccccc3)C2)OC1=O (stereo partly specified)	3.71	9.01	3.68	29.7	3.55	13.4	5.91	7.72	4.45	2.57										
Cn1ccnc1C(=O)/C=C/c1ccc(CC(=O)Nc2ccc(S(F)(F)(F)(F)F)cc2)cc1	2.87	4.82	10.4	4.82	5.21	9.15	11.7	4.82	6.66	2.03	0.823	2.45	3.1	2.23	2.67	3.32	0.878	2.37	3.08	0.517
CC(CN1CCN(C)CC1)CN1c2ccccc2Sc2ccc(C(F)(F)F)cc21 (stereo unspecified)	3.07	3.27	4.55	4.32	3.03	3.49	3.95	4.05	3.65	5.49	1.68	1.67	1.89	2.08	1.64	1.85	1.81	1.83	1.89	2.43
